Measurements: ChEMBL document CHEMBL1201862, “PubChem BioAssay data set” (2004)
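Step 1: Grow cells in 96-well plates. Step 2: Expose to compound for 48 hours at 5 concentrations. Step 3: Interpolate endpoints linearly; if unreached, use highest concentration. Abbreviation: GI50, concentration required for 50% inhibition of growth.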 Active and inactive are the calls of the source. Rule as the data show it: active = GI50 up to about 1.1 µM and inactive = higher.

Legend:
Experiment in all cases: growth of human tumour cells (NCI), 48 h
[1] = test system: KM12
[2] = test system: CCRF-CEM
[3] = test system: HOP-92
[4] = test system: HCC 2998
[5] = test system: UO-31
[6] = test system: SK-MEL-2
[7] = test system: T47D
[8] = test system: HOP-62
[9] = test system: SF-268
[10] = test system: A498
[11] = test system: SK-OV-3
[12] = test system: HCT-116
[13] = test system: OVCAR-3
[14] = test system: K562
[15] = test system: PC-3
[16] = test system: SNB-19
[17] = test system: RXF 393
[18] = test system: OVCAR-5
[19] = test system: SF-295
[20] = test system: MOLT-4
[21] = test system: SNB-75
[22] = test system: RPMI-8226
[23] = test system: Hs-578T
[24] = test system: M14
[25] = test system: UACC-62
[26] = test system: A549
[27] = test system: OVCAR-4
[28] = test system: MDA-N
[29] = test system: IGROV-1
[30] = test system: SN12C
[31] = test system: BT-549
[32] = test system: UACC-257
[33] = test system: HL-60
[34] = test system: TK-10
[35] = test system: SK-MEL-5
[36] = test system: HCT-15
[37] = test system: NCI-H23
[38] = test system: MDA-MB-435
[39] = test system: SK-MEL-28
[40] = test system: EKVX
[41] = test system: LOX IMVI
[42] = test system: MDA-MB-231
[43] = test system: OVCAR-8
[44] = test system: U-251
[45] = test system: SF-539
[46] = test system: ACHN
[47] = test system: SW-620
[48] = test system: COLO 205
[49] = test system: DU-145
[50] = test system: NCI-H522
[51] = test system: CAKI-1
[52] = test system: NCI/ADR-RES
[53] = test system: SR
[54] = test system: HT-29
[55] = test system: 786-0
[56] = test system: NCI-H460
[57] = test system: MCF7
[58] = test system: NCI-H226

CC(C)=CCC(O)C1=CC(=O)c2c(O)ccc(O)c2C1=O (stereo not drawn)
GI50 [1]: 4.7 µM (inactive)
GI50 [2]: 75 nM (active)
GI50 [3]: 641 nM (active)
GI50 [4]: 1.74 µM (inactive)
GI50 [5]: 1.38 µM (inactive)
GI50 [6]: 1.95 µM (inactive)
GI50 [7]: 390 nM (active)
GI50 [8]: 1.82 µM (inactive)
GI50 [9]: 2.27 µM (inactive)
GI50 [10]: 1.96 µM (inactive)
GI50 [11]: 11.7 µM (inactive)
GI50 [12]: 1.25 µM (inactive)
GI50 [13]: 1.14 µM (inactive)
GI50 [14]: 191 nM (active)
GI50 [15]: 2.23 µM (inactive)
GI50 [16]: 2.36 µM (inactive)
GI50 [17]: 745 nM (active)
GI50 [18]: 1.97 µM (inactive)
GI50 [19]: 2.78 µM (inactive)
GI50 [20]: 63 nM (active)
GI50 [21]: 5.04 µM (inactive)
GI50 [22]: 230 nM (active)
GI50 [23]: 2.9 µM (inactive)
GI50 [24]: 1.16 µM (inactive)
GI50 [25]: 1.58 µM (inactive)
GI50 [26]: 4.82 µM (inactive)
GI50 [27]: 1.76 µM (inactive)
GI50 [28]: 805 nM (active)
GI50 [29]: 1.64 µM (inactive)
GI50 [30]: 664 nM (active)
GI50 [31]: 1.58 µM (inactive)
GI50 [32]: 1.5 µM (inactive)
GI50 [33]: 34.9 nM (active)
GI50 [34]: 1.53 µM (inactive)
GI50 [35]: 301 nM (active)
GI50 [36]: 210 nM
GI50 [37]: 1.13 µM (inactive)
GI50 [38]: 1.31 µM (inactive)
GI50 [39]: 1.48 µM (inactive)
GI50 [40]: 1.54 µM (inactive)
GI50 [41]: 1.22 µM (inactive)
GI50 [42]: 1.55 µM (inactive)
GI50 [43]: 1.55 µM (inactive)
GI50 [44]: 2.1 µM (inactive)
GI50 [45]: 1.61 µM (inactive)
GI50 [46]: 525 nM (active)
GI50 [47]: 933 nM (active)
GI50 [48]: 171 nM (active)
GI50 [49]: 1.22 µM (inactive)
GI50 [50]: 258 nM (active)
GI50 [51]: 407 nM (active)
GI50 [52]: 2.05 µM (inactive)
GI50 [53]: 150 nM (active)
GI50 [54]: 1.97 µM (inactive)
GI50 [55]: 494 nM (active)
GI50 [56]: 1.88 µM (inactive)
GI50 [57]: 557 nM (active)
GI50 [58]: 1.01 µM (active)
